The results in this text go back to patent publication US9102591B2, “Benzamides” (H. Lundbeck A/S, priority 2012, dated 2015).

Each structure is given as a SMILES string.

The target of one assay is P2X7 receptor (Homo sapiens (Human), UniProt Q99572). Briefly: P2X7 FLIPR assay (BzATP-stimulated calcium fluorescence, antagonist IC50).
Sequence of P2X7 receptor (Q99572 whole entry): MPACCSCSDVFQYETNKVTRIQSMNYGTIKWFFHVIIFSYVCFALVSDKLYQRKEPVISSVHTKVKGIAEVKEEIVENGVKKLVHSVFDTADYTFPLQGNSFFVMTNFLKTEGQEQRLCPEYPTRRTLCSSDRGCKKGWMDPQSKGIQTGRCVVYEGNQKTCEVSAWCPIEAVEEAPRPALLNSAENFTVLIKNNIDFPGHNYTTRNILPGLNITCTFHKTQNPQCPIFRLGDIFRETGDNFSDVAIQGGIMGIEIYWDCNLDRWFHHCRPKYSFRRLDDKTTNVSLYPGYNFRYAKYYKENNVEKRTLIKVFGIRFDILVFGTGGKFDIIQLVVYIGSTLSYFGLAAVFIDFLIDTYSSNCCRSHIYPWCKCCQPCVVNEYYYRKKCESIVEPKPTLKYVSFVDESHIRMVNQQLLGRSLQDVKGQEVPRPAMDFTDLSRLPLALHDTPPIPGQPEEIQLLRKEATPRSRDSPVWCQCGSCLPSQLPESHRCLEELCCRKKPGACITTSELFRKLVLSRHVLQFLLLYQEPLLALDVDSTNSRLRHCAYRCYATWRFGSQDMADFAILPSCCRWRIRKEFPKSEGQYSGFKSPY
Settings: not given
In kind it is cell-based. The procedure, abridged: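 Cells expressing P2X7 receptor (human, rat or mouse), plated 24 hours earlier in low-serum medium, loaded with Fluo-4 NW dye (30 min 37° C, 30 min room temperature).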
Regarding `O=C(NCC(CC1CC1)c1ccc(C(F)(F)F)nc1)c1c(F)cccc1Cl` (single isomer, unassigned; (-)) [(−)2-chloro-N-[3-cyclopropyl-2-[6-(trifluoromethyl)-3-pyridy] [(−)2-chloro-N-[3-cyclopropyl-2-[6-(trifluoromethyl)-3-pyridyl]propyl]-6-fluoro-benzamide], the half-inhibitory concentration (IC50) came to 2.1 nM. With `CC(CNC(=O)c1cccc(F)c1Cl)(CC1CC1)c1cnc(C(F)(F)F)nc1` (single isomer, unassigned; (-)) [(−)2-chloro-N-[3-cyclopropyl-2-methyl-2-[2-(trifluoromethyl)] [(−)2-chloro-N-[3-cyclopropyl-2-methyl-2-[2-(trifluoromethyl)pyrimidin-5-yl]propyl]-3-fluoro-benzamide], the IC50 was 34 nM.

For the molecule `CC(CNC(=O)c1ccccc1Cl)(CC1CC1)c1cnc(C(F)(F)F)nc1` (single isomer, unassigned; (-)) [(−)2-chloro-N-[3-cyclopropyl-2-methyl-2-[2-(trifluoromethyl)] [(−)2-chloro-N-[3-cyclopropyl-2-methyl-2-[2-(trifluoromethyl)pyrimidin-5-yl]propyl]benzamide], the IC50 stood at 17 nM. Still for that read-out and setting: to `COc1cccc(C(=O)NCC(CC2CC2)c2cnc(C(F)(F)F)nc2)c1C` (single isomer, unassigned; (-)) [(−)N-[3-cyclopropyl-2-[2-(trifluoromethyl)pyrimidin-5-yl]pro] [(−)N-[3-cyclopropyl-2-[2-(trifluoromethyl)pyrimidin-5-yl]propyl]-3-methoxy-2-methyl-benzamide] belongs 1.4 nM.

Turning to `O=C(NCC(CC1CC1)c1ccc(C(F)(F)F)nc1)c1c(F)cccc1F` (single isomer, unassigned; (-)) [(−)N-[3-cyclopropyl-2-[6-(trifluoromethyl)-3-pyridyl]propyl]], the IC50 is 130 nM. For the molecule `O=C(NCC(CC1CC1)c1ccc(C(F)(F)F)nc1)c1ccccc1Cl` (single isomer, unassigned; (-)) [Example 4b, (−)-2-Chloro-N-[3-cyclopropyl-2-[6-(trifluoromethyl)-3-pyridyl]propyl]benzamide], the IC50 was 2.3 nM.

On to `O=C(NCC(CC1CC1)c1ccc(C(F)(F)F)nc1)c1cccc(F)c1Cl` (stereo not drawn) [2(−)-chloro-N-[3-cyclopropyl-2-[6-(trifluoromethyl)-3-pyridy] [2(−)-chloro-N-[3-cyclopropyl-2-[6-(trifluoromethyl)-3-pyridyl]propyl]-3-fluoro-benzamide], for which the IC50 was 2.9 nM.

As for `O=C(NCC1(c2cccnc2)CCCC1)c1cccc(Cl)c1Cl` [2,3-Dichloro-N-(1-pyridin-3-yl-cyclopentylmethyl)-benzamide], the IC50 was determined as 2200 nM. With `COc1ccc(C2(CNC(=O)c3cccc(Cl)c3Cl)CCCC2)cc1` [2,3-Dichloro-N-[1-(4-methoxy-phenyl)-cyclopentylmethyl]-benzamide], the IC50 was 260 nM. As for `Cc1ccc(C(CNC(=O)c2cccc(Cl)c2Cl)CC(C)C)cn1` (centres unmarked) [2,3-Dichloro-N-[4-methyl-2-(6-methyl-pyridin-3-yl)-pentyl]-benzamide], the IC50 amounted to 1 nM. Same read-out and setting: next, `Cc1ccc(C(CNC(=O)c2cccc(C)c2C)CC(C)C)cn1` (centres unmarked) [2,3-Dimethyl-N-[4-methyl-2-(6-methyl-pyridin-3-yl)-pentyl]-benzamide]: 4.4 nM; `O=C(NCC(c1ccccc1)c1ccc(Cl)cc1)c1cccc(Cl)c1Cl` (centres unmarked) [2,3-dichloro-N-(2-(4-chlorophenyl)-2-phenylethyl)benzamide]: 120 nM; `O=C(NCC(CC1CC1)c1cncc(Cl)c1)c1cccc(Cl)c1Cl` (centres unmarked) [2,3-dichloro-N-(2-(5-chloropyridin-3-yl)-3-cyclopropylpropyl)benzamide]: 5.5 nM.

Take `O=C(NCC(c1ccc(C(F)(F)F)nc1)C1CC1)c1cccc(Cl)c1Cl` (centres unmarked) [2,3-dichloro-N-(2-cyclopropyl-2-(6-(trifluoromethyl)pyridin-3-yl)ethyl)benzamide]: the IC50 worked out at 120 nM. `O=C(NCC(c1ccccc1)c1ccnnc1)c1cccc(Cl)c1Cl` (centres unmarked) [2,3-dichloro-N-(2-phenyl-2-pyridazin-4-yl-ethyl)benzamide]: the IC50 amounted to 94 nM. As for `O=C(NCC1(c2ccc(C3CC3)nc2)CCC(F)(F)CC1)c1cccc(Cl)c1Cl` [2,3-dichloro-N-((1-(6-cyclopropylpyridin-3-yl)-4,4-difluorocyclohexyl)methyl)benzamide], the IC50 is 1.3 nM.

As to `Cc1ncc(C2(CNC(=O)c3cccc(Cl)c3Cl)CCOC2)cn1` (centres unmarked) [2,3-dichloro-N-((3-(2-methylpyrimidin-5-yl)tetrahydrofuran-3-yl)methyl)benzamide], the IC50 worked out at 15 nM. Still for that read-out and setting: to `Cc1cn(C2(CNC(=O)c3cccc(Cl)c3Cl)CCC(F)(F)CC2)cn1` [2,3-dichloro-N-((4,4-difluoro-1-(4-methyl-1H-imidazol-1-yl)cyclohexyl)methyl)benzamide] belongs 90 nM; to `O=C(NCC1(c2cncc(F)c2)CCC(F)(F)CC1)c1cccc(Cl)c1Cl` [2,3-dichloro-N-((4,4-difluoro-1-(5-fluoropyridin-3-yl)cyclohexyl)methyl)benzamide], 1.2 nM; to `O=C(NCC1(c2ccc(C(F)(F)F)nc2)CCC(F)(F)CC1)c1cccc(Cl)c1Cl` [2,3-dichloro-N-((4,4-difluoro-1-(6-(trifluoromethyl)pyridin-3-yl)cyclohexyl)methyl)benzamide], 1.2 nM. For the molecule `COc1ccc(C2(CNC(=O)c3cccc(Cl)c3Cl)CCC(F)(F)CC2)cn1` [2,3-dichloro-N-((4,4-difluoro-1-(6-methoxypyridin-3-yl)cyclohexyl)methyl)benzamide], the IC50 stood at 0.96 nM. In the case of `O=C(NCC1(c2ccc(Cl)cc2)CCOCC1)c1cccc(Cl)c1Cl` [2,3-dichloro-N-((4-(4-chlorophenyl)tetrahydro-2H-pyran-4-yl)methyl)benzamide], the IC50 stood at 43 nM. Regarding `O=C(NCC1(c2ccc(C(F)(F)F)nc2)CCOCC1)c1cccc(Cl)c1Cl` [2,3-dichloro-N-((4-(6-(trifluoromethyl)pyridin-3-yl)tetrahydro-2H-pyran-4-yl)methyl)benzamide], the IC50 was found to be 52 nM. Turning to `Cc1ncc(C2(C(C)NC(=O)c3cccc(Cl)c3Cl)CCC(F)(F)CC2)cn1` (centres unmarked) [2,3-dichloro-N-[1-[4,4-difluoro-1-(2-methylpyrimidin-5-yl)cyclohexyl]ethyl]benzamide], the IC50 was found to be 960 nM. Same read-out and setting: next, `Cc1ncc(C(CNC(=O)c2cccc(Cl)c2Cl)CC2(C(F)(F)F)CC2)cn1` (centres unmarked) [2,3-dichloro-N-[2-(2-methylpyrimidin-5-yl)-3-[1-(trifluorome] [2,3-dichloro-N-[2-(2-methylpyrimidin-5-yl)-3-[1-(trifluoromethyl)cyclopropyl]propyl]benzamide]: 7.1 nM; `Cc1ncc(C(CNC(=O)c2cccc(Cl)c2Cl)C2CCC(F)(F)CC2)cn1` (centres unmarked) [2,3-dichloro-N-[2-(4,4-difluorocyclohexyl)-2-(2-methylpyrimidin-5-yl)ethyl]benzamide]: 6.2 nM. On the same count and under the same terms, next, `O=C(NCC(c1ccc(Cl)cc1)C1CCOCC1)c1cccc(Cl)c1Cl` (centres unmarked) [2,3-dichloro-N-[2-(4-chlorophenyl)-2-tetrahydropyran-4-yl-ethyl]benzamide]: 1.6 nM.

With `O=C(NCC(c1ccncc1)c1cnc(C(F)(F)F)nc1)c1cccc(Cl)c1Cl` (centres unmarked) [2,3-dichloro-N-[2-(4-pyridyl)-2-[2-(trifluoromethyl)pyrimidin-5-yl]ethyl]benzamide], the IC50 was 6.2 nM. For `O=C(NCC(c1ccncc1)c1ccc(C(F)(F)F)nc1)c1cccc(Cl)c1Cl` (centres unmarked) [2,3-dichloro-N-[2-(4-pyridyl)-2-[6-(trifluoromethyl)-3-pyridyl]ethyl]benzamide], the IC50 was determined as 200 nM. Take `O=C(NCC(CC1(C(F)F)CC1)c1ccc(C2CC2)nc1)c1cccc(Cl)c1Cl` (centres unmarked) [2,3-dichloro-N-[2-(6-cyclopropyl-3-pyridyl)-3-[1-(difluoromethyl)cyclopropyl]propyl]benzamide]: the IC50 was found to be 0.76 nM. `O=C(NCC(CC1(C(F)(F)F)CC1)c1ccc(C2CC2)nc1)c1cccc(Cl)c1Cl` (centres unmarked) [2,3-dichloro-N-[2-(6-cyclopropyl-3-pyridyl)-3-[1-(trifluoromethyl)cyclopropyl]propyl]benzamide]: the half-inhibitory concentration (IC50) is 15 nM. With `O=C(NCC(CC1(F)CC1)c1cnc(C(F)(F)F)nc1)c1cccc(Cl)c1Cl` (centres unmarked) [2,3-dichloro-N-[3-(1-fluorocyclopropyl)-2-[2-(trifluoromethyl)pyrimidin-5-yl]propyl]benzamide], the IC50 is 9.3 nM. Take `O=C(NCC(CC1(F)CC1)c1ccc(C(F)(F)F)nc1)c1cccc(Cl)c1Cl` (centres unmarked) [2,3-dichloro-N-[3-(1-fluorocyclopropyl)-2-[6-(trifluoromethyl)-3-pyridyl]propyl]benzamide]: the IC50 amounted to 3.7 nM.

Take `O=C(NCC(CC1(C(F)F)CC1)c1ccc(C(F)(F)F)nc1)c1cccc(Cl)c1Cl` (centres unmarked) [2,3-dichloro-N-[3-[1-(difluoromethyl)cyclopropyl]-2-[6-(trifluoromethyl)-3-pyridyl]propyl]benzamide]: the IC50 worked out at 1.6 nM. In the case of `O=C(NCC(CC1(C(F)(F)F)CC1)c1ccc(C(F)(F)F)nc1)c1cccc(Cl)c1Cl` (centres unmarked) [2,3-dichloro-N-[3-[1-(trifluoromethyl)cyclopropyl]-2-[6-(tri] [2,3-dichloro-N-[3-[1-(trifluoromethyl)cyclopropyl]-2-[6-(trifluoromethyl)-3-pyridyl]propyl]benzamide], the IC50 turned out to be 19 nM.

On to `Cc1ccc(C(CNC(=O)c2cccc(Cl)c2Cl)CC2CC2)c(C)n1` (centres unmarked) [2,3-dichloro-N-[3-cyclopropyl-2-(2,6-dimethyl-3-pyridyl)propyl]benzamide], for which the IC50 worked out at 1300 nM. The same measure, in the same setting: next, `O=C(NCC(CC1CC1)c1cnc(C(F)(F)F)nc1)c1cccc(Cl)c1Cl` (centres unmarked) [2,3-dichloro-N-[3-cyclopropyl-2-[2-(trifluoromethyl)pyrimidi] [2,3-dichloro-N-[3-cyclopropyl-2-[2-(trifluoromethyl)pyrimidin-5-yl]propyl]benzamide]: 0.88 nM.

Staying with this assay, now noted: listed as (−)2-chloro-N-[3-cyclopropyl-2-(6-fluoro-3-pyridyl)propyl]benzamide.
`O=C(NCC(CC1CC1)c1ccc(F)nc1)c1ccccc1Cl` (single isomer, unassigned; (-)) [Example 4x, (−)-2-chloro-N-(3-cyclopropyl-2-(6-fluoropyridin-3-yl)propyl)benzamide]: the IC50 was 16 nM.

As a reminder, the IC50 is the midpoint of a concentration-inhibition curve.
